# According to patent publication US8415342B2, “Besifloxacin ophthalmic composition for the treatment or control of infection” (Bausch & Lomb Incorporated, priority 2008, dated 2013):
# Where two headings read alike, the source gives them in different places.
# How the values were obtained:
# Assay type in all cases: cell-based
# Staphylococcus aureus = test: MIC, CLSI broth microdilution, clinical isolates; settings: for MIC50 / MIC90: Staphylococcus aureus
# [1] = tested on: Staphylococcus epidermidis; test: MIC, CLSI broth microdilution, clinical isolates; settings: for MIC50: Staphylococcus epidermidis
# [2] = tested on: Staphylococcus lugdunensis; test: MIC, CLSI broth microdilution, clinical isolates; settings: Staphylococcus lugdunensis (N = 15)
# [3] = tested on: Staphylococcus saprophyticus; test: MIC, CLSI broth microdilution, clinical isolates; settings: Staphylococcus saprophyticus (N = 101)
# [4] = tested on: Staphylococcus haemolyticus; test: MIC, CLSI broth microdilution, clinical isolates; settings: Staphylococcus haemolyticus (N = 101)
# Staphylococcus warneri = test: MIC, CLSI broth microdilution, clinical isolates; settings: Staphylococcus warneri (N = 50)
# Staphylococcus hominis = test: MIC, CLSI broth microdilution, clinical isolates; settings: Staphylococcus hominis (N = 50)
# Streptococcus agalactiae = test: MIC, CLSI broth microdilution, clinical isolates; settings: Streptococcus agalactiae (N = 100)
# Streptococcus pneumoniae = test: MIC, CLSI broth microdilution, clinical isolates
# Streptococcus pyogenes = test: MIC, CLSI broth microdilution, clinical isolates; settings: Streptococcus pyogenes (N = 101)
# [5] = tested on: Lancefield group C, F, G streptococci; test: MIC, CLSI broth microdilution, clinical isolates; settings: G streptococci (N = 50)
# Viridans streptococci = test: MIC, CLSI broth microdilution, clinical isolates; settings: Viridans streptococci (N = 156)
# Citrobacter koseri = test: MIC, CLSI broth microdilution, clinical isolates; settings: Citrobacter koseri (N = 100)
# Klebsiella oxytoca = test: MIC, CLSI broth microdilution, clinical isolates; settings: Klebsiella oxytoca (N = 50)
# Haemophilus influenzae = test: MIC, CLSI broth microdilution, clinical isolates; settings: for MIC50 / MIC90: Haemophilus influenzae
# Legionella pneumophila = test: microbe, parasite or virus in culture
# Moraxella catarrhalis = test: MIC, CLSI broth microdilution, clinical isolates; settings: Moraxella catarrhalis (N = 101)
# Morganella morganii = test: MIC, CLSI broth microdilution, clinical isolates; settings: Morganella morganii (N = 51)
# Anaerobic Bacteria = test: MIC against anaerobic bacteria (Table 7)
# S. aureus = test: MIC of clinical trial isolates, Studies 373, 433, 434; settings: Staphylococcus aureus
# S. epidermidis = test: as above; settings: Staphylococcus epidermidis, read-out: MIC90
# [6] = Staphylococcus aureus (CNS, N = 16)
# [7] = Staphylococcus aureus (CS, N = 14)
# [8] = Staphylococcus aureus (all phenotypes, N = 30)
# [9] = MRSA, Staphylococcus aureus (MRSA, N = 11)
# [10] = MSSA, Staphylococcus aureus (MSSA, N = 19)
# [11] = Staphylococcus epidermidis (CNS, N = 6)
# [12] = Staphylococcus epidermidis (CS, N = 9)
# [13] = Staphylococcus epidermidis (MSSE, N = 6)
# [14] = Staphylococcus epidermidis (all phenotypes, N = 15)
# [15] = Streptococcus pneumoniae (PISP, N = 2)
# [16] = Streptococcus pneumoniae (PRSP, N = 2)
# [17] = Streptococcus pneumoniae (PSSP, N = 31)
# [18] = Streptococcus pneumoniae (all phenotypes, N = 35)
# [19] = Haemophilus influenzae (all phenotypes, N = 40)
# [20] = Haemophilus influenzae (bla negative, N = 24)
# [21] = Haemophilus influenzae (bla positive, N = 16)
# [22] = Clostridium perfringens, Clostridium perfringens (N = 21)
smiles,measurement,setting,value
COc1c(N2CCNC(C)C2)c(F)cc2c(=O)c(C(=O)O)cn(C3CC3)c12 (centres unmarked) [Gatifloxacin],% S,Staphylococcus aureus; [6],6.3%
same,% S,Staphylococcus aureus; [7],92.9%
same,MIC Range,Staphylococcus aureus; [7],0.03 to 1 µg/mL
same,% S,"Staphylococcus aureus; Staphylococcus aureus (MRSA, N = 11)",18.2%
same,% S,"Staphylococcus aureus; Staphylococcus aureus (MSSA, N = 19)",63.2%
same,% S,Staphylococcus aureus; [8],46.7%
same,MIC50,Staphylococcus aureus; [9],2 µg/mL
same,MIC90,Staphylococcus aureus; [9],> 8 µg/mL
same,MIC50,Staphylococcus aureus; [10],0.06 µg/mL
same,MIC90,Staphylococcus aureus; [10],2 µg/mL
same,MIC50,Staphylococcus aureus; [6],2 µg/mL
same,MIC90,Staphylococcus aureus; [6],> 8 µg/mL
same,MIC50,Staphylococcus aureus; [7],0.06 µg/mL
same,MIC90,Staphylococcus aureus; [7],0.25 µg/mL
same,MIC50,Staphylococcus aureus; [8],1 µg/mL
same,MIC90,Staphylococcus aureus; [8],> 8 µg/mL
same,% S,[1]; [11],50.0%
same,% S,[1]; [12],100.0%
same,MIC Range,[1]; [12],0.06-0.06 μg/mL
same,% S,"[1]; Staphylococcus epidermidis (MRSE, N = 9)",44.4%
same,% S,[1]; [13],83.3%
same,MIC Range,[1]; [13],0.06 to 1 µg/mL
same,% S,[1]; [14],60.0%
same,MIC90,[1]; [14],> 8 µg/mL
same,MIC50,"[1]; MRSE, Staphylococcus epidermidis (MRSE, N = 9)",1 µg/mL
same,MIC50,[1]; [11],1 µg/mL
same,MIC50,[1]; [12],0.06 µg/mL
same,MIC50,[1]; [13],0.06 µg/mL
same,MIC50,[1]; [14],0.06 µg/mL
same,% S,[2],73.3%
same,MIC50,[2],0.12 µg/mL
same,MIC90,[2],2 µg/mL
same,MIC Range,[2],0.03 to 8 µg/mL
same,% S,[3],100.0%
same,MIC50,[3],0.12 µg/mL
same,MIC90,[3],0.25 µg/mL
same,MIC Range,[3],0.03 to 0.25 µg/mL
same,% S,[4],40.6%
same,MIC50,[4],2 µg/mL
same,MIC90,[4],8 µg/mL
same,% S,Staphylococcus warneri,76.0%
same,MIC50,Staphylococcus warneri,0.12 µg/mL
same,MIC90,Staphylococcus warneri,4 µg/mL
same,% S,Staphylococcus hominis,32.0%
same,MIC50,Staphylococcus hominis,1 µg/mL
same,MIC90,Staphylococcus hominis,4 µg/mL
same,% S,Streptococcus agalactiae,100.0%
same,MIC Range,Streptococcus agalactiae,0.12 to 1 µg/mL
same,MIC50,Streptococcus agalactiae; read-out: MIC50,0.25 µg/mL
same,MIC90,Streptococcus agalactiae; read-out: MIC90,0.25 µg/mL
same,% S,Streptococcus pneumoniae; [15],100.0%
same,MIC Range,Streptococcus pneumoniae; [15],0.25-0.25 μg/mL
same,% S,Streptococcus pneumoniae; [16],100.0%
same,MIC Range,Streptococcus pneumoniae; [16],0.12 to 0.25 µg/mL
same,% S,Streptococcus pneumoniae; [17],96.8%
same,MIC50,Streptococcus pneumoniae; [17],0.12 µg/mL
same,MIC90,Streptococcus pneumoniae; [17],0.25 µg/mL
same,MIC Range,Streptococcus pneumoniae; [17],0.015 to 4 µg/mL
same,% S,Streptococcus pneumoniae; [18],97.1%
same,MIC Range,Streptococcus pneumoniae; [18],0.015 to 4 µg/mL
same,MIC50,"Streptococcus pneumoniae; Streptococcus pneumoniae (all phenotypes, N = 35), read-out: MIC50",0.12 µg/mL
same,MIC90,"Streptococcus pneumoniae; Streptococcus pneumoniae (all phenotypes, N = 35), read-out: MIC90",0.25 µg/mL
same,% S,Streptococcus pyogenes,100.0%
same,MIC Range,Streptococcus pyogenes,0.06 to 0.5 µg/mL
same,MIC50,Streptococcus pyogenes; read-out: MIC50,0.12 µg/mL
same,MIC90,Streptococcus pyogenes; read-out: MIC90,0.25 µg/mL
same,% S,[5],98.0%
same,MIC Range,[5],0.06 to 2 µg/mL
same,MIC50,[5]; read-out: MIC50,0.12 µg/mL
same,MIC90,[5]; read-out: MIC90,0.25 µg/mL
same,MIC Range,Viridans streptococci,0.03 to 8 µg/mL
same,MIC50,Viridans streptococci; read-out: MIC50,0.25 µg/mL
same,MIC90,Viridans streptococci; read-out: MIC90,0.5 µg/mL
same,% S,Citrobacter koseri,99.0%
same,MIC50,Citrobacter koseri,0.015 µg/mL
same,MIC90,Citrobacter koseri,0.12 µg/mL
same,% S,Klebsiella oxytoca,92.0%
same,MIC50,Klebsiella oxytoca,0.03 µg/mL
same,MIC90,Klebsiella oxytoca,0.5 µg/mL
same,MIC Range,Klebsiella oxytoca,0.015 to 8 µg/mL
same,% S,Haemophilus influenzae; [19],100.0%
same,MIC Range,Haemophilus influenzae; [19],≦0.004-0.015 μg/mL
same,% S,Haemophilus influenzae; [20],100.0%
same,MIC Range,Haemophilus influenzae; [20],≦0.004-0.015 μg/mL
same,% S,Haemophilus influenzae; [21],100.0%
same,MIC Range,Haemophilus influenzae; [21],≦0.004-0.015 μg/mL
same,MIC50,Haemophilus influenzae; [19],0.008 µg/mL
same,MIC90,Haemophilus influenzae; [19],0.008 µg/mL
same,MIC50,Haemophilus influenzae; [20],0.008 µg/mL
same,MIC90,Haemophilus influenzae; [20],0.008 µg/mL
same,MIC50,Haemophilus influenzae; [21],0.008 µg/mL
same,MIC90,Haemophilus influenzae; [21],0.008 µg/mL
same,MIC50,Legionella pneumophila; Legionella pneumophila,0.03 µg/mL
same,MIC90,Legionella pneumophila; Legionella pneumophila,0.06 µg/mL
same,MIC Range,Legionella pneumophila; Legionella pneumophila (N = 50),0.015 to 0.06 µg/mL
same,MIC50,Moraxella catarrhalis,0.015 µg/mL
same,MIC90,Moraxella catarrhalis,0.015 µg/mL
same,MIC Range,Moraxella catarrhalis,0.008 to 0.25 µg/mL
same,% S,Morganella morganii,74.5%
same,MIC50,Morganella morganii,0.12 µg/mL
same,MIC90,Morganella morganii,> 8 µg/mL
same,MIC Range,Anaerobic Bacteria; Bacteroides fragilis (N = 20),1 to 16 µg/mL
same,MIC50,"Anaerobic Bacteria; Bacteroides fragilis, Bacteroides fragilis (N = 20), read-out: MIC50",2 µg/mL
same,MIC90,"Anaerobic Bacteria; Bacteroides fragilis, Bacteroides fragilis (N = 20), read-out: MIC90",4 µg/mL
same,MIC Range,Anaerobic Bacteria; Clostridium perfringens (N = 21),0.5 to 1 µg/mL
same,MIC50,Anaerobic Bacteria; [22],1 µg/mL
same,MIC90,Anaerobic Bacteria; [22],1 µg/mL
same,MIC50,"Anaerobic Bacteria; Cutibacterium acnes, Propionibacterium acnes (N = 21), read-out: MIC50",0.25 µg/mL
same,MIC90,"Anaerobic Bacteria; Cutibacterium acnes, Propionibacterium acnes (N = 21), read-out: MIC90",0.5 µg/mL
same,MIC50,"Anaerobic Bacteria; Fusobacterium spp. (N = 21), read-out: MIC50",1 µg/mL
same,MIC90,"Anaerobic Bacteria; Fusobacterium spp. (N = 21), read-out: MIC90",4 µg/mL
same,MIC50,"Anaerobic Bacteria; Prevotella spp. (N = 20), read-out: MIC50",8 µg/mL
same,MIC90,"Anaerobic Bacteria; Prevotella spp. (N = 20), read-out: MIC90",16 µg/mL
same,MIC Range,Anaerobic Bacteria; Propionibacterium acnes (N = 21),0.25 to 0.5 µg/mL
same,MIC90,"S. aureus; MRSA, S. aureus MRSA-CR, N 17, read-out: MIC90",> 8 µg/mL
same,MIC90,"S. aureus; MRSA, S. aureus MRSA-CS, N 9, read-out: MIC90 (due to limited isolates, highest MIC value is given)",0.25 µg/mL
same,MIC90,"S. aureus; MSSA, S. aureus MSSA-CR, N 17, read-out: MIC90",> 8 µg/mL
same,MIC90,"S. aureus; MSSA, S. aureus MSSA-CS, N 144, read-out: MIC90",0.25 µg/mL
same,MIC90,"S. epidermidis; MRSE, S. epidermidis MRSE-CR, N 24",> 8 µg/mL
same,MIC90,"S. epidermidis; MRSE, S. epidermidis MRSE-CS, N 27",0.25 µg/mL
same,MIC90,"S. epidermidis; S. epidermidis MSSE-CR, N 10",8 µg/mL
same,MIC90,"S. epidermidis; S. epidermidis MSSE-CS, N 50",0.25 µg/mL
